Measured values reported in US4730006A, “Derivatives of 2,6-diamino-3-haloheptanedioic acid” (Merrell Dow Pharmaceuticals Inc., priority 1986, dated 1988).
pIC50, pKi: −log10 of the molar value. ≈ marks a conversion by molar mass, not a printed value. Structures can show the parent of a compound that is named as a salt. Where two headings read alike, the source gives them in different places.

Legend:
[1] = target: T1, Escherichia coli DAP-epimerase (E.C. 5.1.1.7) (Escherichia coli, UniProt P0A6K1); test: Inhibition of Escherichia coli DAP-epimerase (E.C. 5.1.1.7); type: biochemical, Escherichia coli (PR7)
T1 construct: endogenous in cells; host or cells: E. coli PR7; Endogenous enzyme purified by ammonium sulfate 30-45%, DE52 and Matrix green A dye-ligand column
Procedure: Strains were inoculated into Nutrient bath (5 ml) and grown up overnight (16 hours) at 37° C. Small amounts of cells were obtained in shake flask cultures (50 ml-1000 ml) obtained by innoculating Igarashi medium (Igarashi et al., 1979), with 2% of the starter culture. Cells were harvested at late-log (OD 540 nm 0,7-0,8) and rinsed before storage at -20° C. Larger amounts of cells were obtained using an overnight culture (Igarashi medium) of 2,5 l as innoculum for 80 l of Igarashi medium in a Biolaffite Fermenter. Cells were harvested in late-log (OD 540 nm 2.0) using a filtration system for cell concentration (40 fold) followed by centrifugation.
Cells from E. Coli (PR7), usually in batches of 40 g, were suspended in 100 ml buffer A (20 mM potassium phosphate 1 mM EDTA, 1 mM DTT, pH 7.0) by using the Ultraturrax apparatus (10 min). Passage through the French press (20,000 lbs/sq ins) and centrifugation 30,000 xg for 20 min gave the S30 crude extract. The supernatent was fractionated by adding solid ammonium sulfate to 30%, centrifugation was followed by further ammonium sulfate to 45%. The precipitated protein was dissolved in buffer to give a final volume of 10 ml which was dialysed overnight against 2,000 ml of buffer A.
The dialysed crude enzyme preparation was applied to a DEAE-cellulose column (2.3×49 cms) DES52, equilibrated with buffer A. The column was washed with 250 ml of buffer A and eluted with a linear gradiant formed by adding 250 ml of buffer A containing 0,22M KCl to 250 ml of buffer A. The flow rate was 25 ml/hr and 10 ml fractions were collected. DAP-epimerase eluted near the end of the gradiant at approximately 0,20M KCl. Pooled fractions containing DAPepimerase activity were dialysed overnight against 2,000 ml buffer A. Enzyme was concentrated by applying the dialysate to a smal DES52 column (0.9×10 cms), rinsing with 50 ml of buffer A and eluting with buffer A containing 0,50M KCl. The flow-rate was 20 ml/hr and 2,5 ml fractions were collected. Enzyme activity eluted immediately and pooled fractions were dialized against 1,000 ml buffer A.
A final purification step was obtained by applying the concentrated dialysed enzyme to a dye ligand column (1,4×5 cms), Matrix green A, rinsing with 50 ml buffer A and then eluting with 50 ml of buffer A containing 1,2M […] collecting 5 ml fractions. Pooled fractions were dialysed and concentrated on a small DE52 as described above.
(§1) DAP-epimerase activity was routinely measured at 25° C. Reaction mixtures contained 0.1M Tris HCl (pH 7,8), 1 mH EDTA, 1 mM DTT and […] of [G-^3 H]DAP in a total volume of 0.10 ml. After incubation for 40 min, reaction mixtures were quenched with 0.5 ml of 10% TCA and applied to 1 ml of AG50×4 ion-exchange resin (H' form) contained in a column (about 0.4×2 cms) fashioned from a blue pipette cone. The column was washed with 3×0.5 ml of water and the combined eluants counted for radioactivity.
(§2) In vitro DAP-epimerase, purified as described above, was incubated at 25° C. with various concentrations of δ-fluoro-ε-carboxylysine (usually 0, 10, 20, 40, 80 and […]) as described in the enzyme assay above.
*Values determined by Dixon plots (Ref. Dixon, M., 1972).

[2] = system: P. aerogerosa (ATCC 25619); test: MIC, serial dilutions in plates, P. aerogerosa; type: cell-based
Procedure: (§3) The antibacterial spectrum and minimal inhibitory concentration (MIC) of typical compounds of the present invention are determined by one or more standard techniques. Thus, for example, serial dilutions of the compound being tested are made in tubes of rich medium containing no peptide […] (Atherton et al., 1979) or in plates containing the same medium plus agar. Series of tubes or plates of agar containing different concentrations of the test compound are inoculated with the cultures utilized to determine activity. After incubation for 24 hours at 37° C., the inoculated tubes or agar plates are examined for the inhibition of bacterial growth and an MIC is determined therefrom.
(§4) The following example illustrates the in vitro activity of the compounds of this invention against a variety of pathogenic organisms.
(§5) *Serial dilutions in plates as described by Atherton et al. (1979).

[3] = system: S. marcescens (ATCC 8100); test: MIC, serial dilutions in plates, S. marcescens; type: cell-based; details: Serratia marcescens, ATCC8100
Procedure: as §3, §4, §5

[4] = In vivo studies: serum levels in mice by bioassay; parameters: species or system CFW mice; details: for Serum half-life: mice
Procedure: Groups of 3 fasted CFW mice (20 g±2) were dosed subcutaneously with 20, 50 or 100 mg/kg or orally with 50 or 100 mg/kg of δ-fluoro-ε-carboxylysyl-L-alanyl-L-alanine. At intervals of from 10 min to 210 min, after dosing animals were anesthetised with ether, and heparinized blood samples obtained by eye-puncture. Samples were kept on ice and the plasma removed. After dilution (1:1) with saline, aliquots were assayed for δ-fluoro-ε-carboxylysyl-L-alanyl-alanine by bioassay.
The antibacterial activity of δ-fluoro-ε-carboxylysyl-L-alanyl-alanine was determined by plate assay on "Roche" agar medium (adjusted to pH 6,5-see Atherton et al. (1979) using Aerobacter aerogenes as the test strain. Standard solutions of δ-fluoro-ε-carboxylysyl-L-alanyl-alanine were prepared by suitable dilutions in water (from the same solution used for injection) and 0,4 μg to 7,0 μg were applied to sterile discs (9 mm dia.) concomittently with serum samples. After overnight incubation at 37° C., zones of inhibition were measured across two diameters. A standard plot of zone diameter vs log. concentration of standards was prepared. The average serum concentration of δ-fluoro-ε-carboxylysyl-L-alanyl-alanine from 3 mice was taken from this standard plot. Control serum had no activity and 50% serum had no effect on the standard plot.

[5] = system: E. coli (PR7); test: MIC, serial dilutions in plates, E. coli; type: cell-based; details: Escherichia coli
Procedure: as §3, §4, §5

[6] = system: A. aerogenes (62.1); test: MIC, serial dilutions in plates, A. aerogenes; type: cell-based; details: Klebsiella aerogenes
Procedure: as §3, §4, §5

[7] = target: T2, DAP-epimerase (EC 5.1.1.7) (Pseudomonas aeruginosa, UniProt Q51564); test: Inhibition of DAP-epimerase partially purified from Pseudomonas aerogenosa; type: biochemical, Pseudomonas aerogenosa (ATCC 25619); details: enzyme partially purified from P. aerogerosa (ATCC 25619) through to the first DE52 column
T2 construct: **DAPepimerase was partially purified from each organism as described; endogenous in cells; host or cells: Pseudomonas aeruginosa ATCC 25619; Purified through the first DE52 column
T2 sequence (Q51564 1-276): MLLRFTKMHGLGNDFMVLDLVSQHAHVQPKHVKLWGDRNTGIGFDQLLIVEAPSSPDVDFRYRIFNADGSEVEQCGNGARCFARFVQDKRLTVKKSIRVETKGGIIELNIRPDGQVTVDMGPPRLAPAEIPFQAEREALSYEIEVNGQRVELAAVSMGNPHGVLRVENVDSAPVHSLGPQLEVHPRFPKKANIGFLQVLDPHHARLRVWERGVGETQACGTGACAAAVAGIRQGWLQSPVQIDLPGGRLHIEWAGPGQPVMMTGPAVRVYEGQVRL
Procedure: as §1, §2
(§6) **DAPepimerase was partially purified from each organism as described
(§7) (Example VII) through to the first DE52 column except that with Aerobacte

[8] = target: T3, DAP-epimerase (EC 5.1.1.7) (Serratia marcescens, UniProt A0A0G3SSC4); test: Inhibition of DAP-epimerase partially purified from Serratia marcescens; type: biochemical, Serratia marcescens (ATCC 8100); details: enzyme partially purified from S. marcescens (ATCC 8100) through to the first DE52 column
T3 sequence (A0A0G3SSC4 1-274): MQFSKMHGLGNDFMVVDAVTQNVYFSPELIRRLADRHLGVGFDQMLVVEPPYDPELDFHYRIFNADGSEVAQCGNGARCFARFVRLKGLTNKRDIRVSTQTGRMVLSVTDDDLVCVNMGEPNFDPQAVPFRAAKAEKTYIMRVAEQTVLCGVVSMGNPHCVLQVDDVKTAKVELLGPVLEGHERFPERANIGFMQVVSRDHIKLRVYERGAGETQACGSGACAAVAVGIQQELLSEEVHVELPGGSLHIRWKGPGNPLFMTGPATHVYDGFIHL
Procedure: as §1, §2, §6, §7

T1 sequence (P0A6K1 whole entry): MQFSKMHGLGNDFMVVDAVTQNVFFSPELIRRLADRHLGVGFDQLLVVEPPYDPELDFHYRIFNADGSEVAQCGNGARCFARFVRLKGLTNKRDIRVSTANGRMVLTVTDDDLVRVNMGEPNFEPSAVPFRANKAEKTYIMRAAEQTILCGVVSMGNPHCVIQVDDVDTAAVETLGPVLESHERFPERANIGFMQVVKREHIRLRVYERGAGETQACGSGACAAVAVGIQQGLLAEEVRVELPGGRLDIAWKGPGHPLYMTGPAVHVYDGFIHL

## NC(CCC(F)(F)C(N)C(=O)O)C(=O)O (stereo not drawn) [δ,δ-difluoro-ε-carboxylysine, 1,5-diamino-2,2-difluoro-1,5-pentanedicarboxylic acid, dihydrochloride]
[1]; purified E. coli DAP-epimerase, 25° C., read-out: IC50
  pIC50: 4.30

## C[C@H](NC(=O)[C@H](C)NC(=O)[C@@H](N)CCC(F)C(N)C(=O)O)C(=O)O (stereo partly drawn) [δ-FLUORO-ε-CARBOXYLYSYL-L-ALANYL-L-ALANINE]
[2]
  MIC: 100 mg/L (≈ 285 µM)
[3]
  MIC: 0.2 mg/L (≈ 0.571 µM)
[4]; P.O. (printed on the 50 mg/kg line)
  Serum half-life: 1.07 h
[4]; S.C. (printed on the 50 mg/kg line)
  Serum half-life: 1.2 h
[4]; mouse, in vivo
  Serum levels compared with minimum inhibition concentrations of infectious microorganisms: consistently above the minimum inhibition concentrations
[5]
  MIC: 12.5 mg/L (≈ 35.7 µM)
[6]
  MIC: 12.5 mg/L (≈ 35.7 µM)

## NC(CCC(Cl)C(N)C(=O)O)C(=O)O (stereo not drawn) [δ-chloro-ε-carboxylysine, 1,5-diamino-2-chloro-1,5-pentanedicarboxylic acid, dihydrochloride]
[1]
  pKi: 6.30

## NC(CCC(F)C(N)C(=O)O)C(=O)O (stereo not drawn) [δ-fluoro-ε-carboxylysine, 3-fluoro-2,6-diaminopimelic acid]
[7]
  pKi: 5.27
[8]
  pKi: 6.00
[1]
  pIC50: 5.87
  pKi: 5.11
[1]; in vitro, enzyme incubated with inhibitor at 25° C., then diluted 50-fold
  Inhibition after aliquots were removed and diluted 50-fold with the assay medium: no inhibition was observed

## C[C@H](NC(=O)[C@@H](N)CCC(F)C(N)C(=O)O)C(=O)O (stereo partly drawn) [δ-fluoro-ε-carboxylysylalanine, δ-Fluoro-ε-carboxylysyl-L-alanine]
[2]
  MIC: 0.8 mg/L (≈ 2.86 µM)
[3]
  MIC: 0.2 mg/L (≈ 0.716 µM)
[5]
  MIC: 12.5 mg/L (≈ 44.8 µM)
[6]
  MIC: 6 mg/L (≈ 21.5 µM)
